Experimental data reported in US9820487B2, “Abscinazole” (NATIONAL UNIVERSITY CORPORATION SHIZUOKA UNIVERSITY, priority 2014, dated 2017).

Tests used:
[1] = molecular target: T1, ent-kaurene oxidase CYP701A6 (Oryza sativa subsp. japonica, UniProt Q5Z5R4); test: Ent-kaurene oxidase CYP701A6 inhibition test; format: biochemical; conditions: CYP701A6 + NADPH-P450 reductase ATR2, substrate ent-kaurene, 30° C. 30 minutes; IC50 calculated from two concentrations
T1 sequence (Q5Z5R4 1-505): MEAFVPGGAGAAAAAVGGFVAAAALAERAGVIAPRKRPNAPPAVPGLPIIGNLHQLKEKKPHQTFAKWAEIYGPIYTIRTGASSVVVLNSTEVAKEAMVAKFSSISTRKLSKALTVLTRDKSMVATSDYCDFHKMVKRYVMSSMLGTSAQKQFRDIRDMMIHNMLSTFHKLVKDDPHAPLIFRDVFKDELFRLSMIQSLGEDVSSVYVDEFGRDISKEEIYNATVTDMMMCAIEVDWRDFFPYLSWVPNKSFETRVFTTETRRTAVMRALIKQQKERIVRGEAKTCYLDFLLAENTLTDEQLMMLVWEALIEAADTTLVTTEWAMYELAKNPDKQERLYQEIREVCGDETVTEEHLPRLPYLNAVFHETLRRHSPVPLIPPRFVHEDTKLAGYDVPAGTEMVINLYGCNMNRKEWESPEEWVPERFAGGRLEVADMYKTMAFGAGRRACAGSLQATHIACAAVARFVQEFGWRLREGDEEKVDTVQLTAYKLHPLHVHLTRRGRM
Description: To a 1.5 mL microtube, 8 μL of an aqueous solution of 500 μM ent-kaurene as a substrate in 45% cyclodextrin and 8μL of a solution of the sample in dimethylformamide were put. 10 μL of 2.32 μM ent-kaurene oxidase CYP701A6 and 10 μL of 4.6 unit/mL NADPH-P450 reductase ATR2, heated at 30° C. for 5 minutes in advance, were added thereto. 304 μL of ultra-pure water, 40 μL of 500 mM KPB and 20 μL of an aqueous solution of 20 mM NADPH, heated at 30° C. for 10 minutes in advance, were added thereto thereby starting the enzyme reaction. The reaction was carried out at 30° C. for 30 minutes at a rotation speed of 1000 rpm and 100 μL of 1 M hydrochloric acid was added thereto thereby terminating the reaction. 5 μL of 10 μM abietic acid as the internal standard was added thereto, and the solution was extracted with 400 μL of ethyl acetate. The resultant was dried over sodium sulfate and subsequently concentrated under reduced pressure. 50 μL of methanol and 5 μL of 2 M trimethyl silyldiazomethane were added thereto to methylate carboxylic acid and the resultant was thy-solidified using nitrogen. The solidified product was dissolved in 150 μL of hexane and 1 μL of the resultant solution was subjected to a GC-MS analysis to detect the enzyme metabolite ent-kaurene acid. The CYP701A6 inhibition rate of the samples was calculated in accordance with the following formula (4). Note that the peak area of ent-kaurene acid was calculated from the peak area of m/z 273 and that ent-kaurene acid was identified from the area ratio of m/z 257, 213. The peak area of abietic acid was calculated from the area of m/z 256, and abietic acid was identified from the area ratio of m/z 316. Note that dimethylformamide was used for the control in place of the sample solution. Each sample was tested with two different concentrations to act late the 50% inhibition concentration (IC50) based on the enzyme inhibition rates thereof.
Enzyme inhibition rate (%)={1-(Ent-kaurene acid peak area of each sample/Abietic acid peak area of each sample/(Ent-kaurene acid peak area of control/Abietic acid peak area of control }×100 . . . (4)

[2] = test system: seeds of thale cress (Arabidopsis thaliana, Col-0); test: Thale cress seed germination inhibition test (2); format: in vivo; conditions: 120 hours after seed plantation (FIG. 3)
Description: Seeds of thale cress (Arabidopsis thaliana, Col-0) were immersed in […] an aqueous solution of 70% ethanol for 30 minutes, subsequently in 500 μL of 100% ethanol for 1 minute, washed three times in 1 mL of distilled water, then immersed in distilled water and, in a dark place, verbalized at 4° C. for 3 days. A solution of the sample in methanol and a solution of ABA in methanol were put in a 1.5 mL microtube, and methanol was removed therefrom under reduced pressure. An aqueous solution of 0.5% agar (containing 1/2 MS medium inorganic salts) at 70° C. was added thereto, followed by stirring the resultant. The obtained solution was placed in a 96-well plate to provide the medium containing the sample. 20 to 30 vernalized seeds of thale cress were planted in each well and cultured at 22° C. under continuous light to monitor the number of seeds germinated over time. The germination rate was calculated in accordance with the following formula (1). Note that the medium prepared using methanol in the same manner as above was used as an untreated control and a germination rate of 100% was achieved 72 hours later from the seed plantation. Germination rates 72 hours later from the seed plantation are shown in FIG. 1 and initial growth conditions of thale cress 120 hours later are shown in FIG. 2.
Germination rate (%)=Number of seeds germinated/Number of seeds planted×100 . . . (1) […]

**Q.** What does the source list for `COCCOCCOCCOCC#Cc1cccc(/C=C(\[C@@H](O)C(C)(C)C)n2cncn2)c1` [Example 1 (−) Form, (−)-(S)-(E)-1-(3-(2,5,8,11-tetraoxatetradec-13-yn-14-yl)phenyl)-4,4-dimethyl-2-(1H-1,2,4-triazol-1-yl)pent-1-en-3-ol]?
**A.** potency estimated from few doses [1]: 780 nM; seed germination inhibition compared with (−) form of Comparative Example 1 [2]: can inhibit the seed germination even in lower concentrations
